Test system: Penecillium Digitatum
Test: Example 3, Trials 1-3: decay of inoculated clementine stored at room temp
Type: in vivo, Penecillium Digitatum on Clementine
Protocol: Fruits: Clementine; Inoculum: Penecillium Digitatum 10^5; Inoculation: 24 hours prior to treatment.
Storage: Cartons of fruit from all the treatments were stored for several days at room temp to monitor fruit spoilage and treatment efficacy.

Row | Structure (SMILES) | % decay (waste) 9 days at room temp (Trial 3, PAA 150 ppm only) [%] | % decay (waste) 12 days at room temp (Trial 1, IMZ 250 ppm, PAA 0, ACIDS 0) [%] | % decay (waste) 9 days at room temp (Trial 2, IMZ 250 ppm, PAA 0, ACIDS 0) [%] | % decay (waste) 9 days at room temp (Trial 2, IMZ 500 ppm, PAA 0, ACIDS 0) [%] | % decay (waste) 9 days at room temp (Trial 3, IMZ 250 ppm, PAA 0, ACIDS 0) [%] | % decay (waste) 9 days at room temp (Trial 3, IMZ 500 ppm, PAA 0, ACIDS 0) [%]
1 | CC(=O)OO [PAA, peracetic acid] | 36 |  |  |  |  | 
2 | C=CCOC(Cn1ccnc1)c1ccc(Cl)cc1Cl (stereo not drawn) [IMZ, imazalil] |  | 55 | 40 | 19 | 35 | 24

Source: patent US20230263168A1, “COMBINED FUNGICIDAL PREPARATIONS AND METHODS FOR USING THEREOF” (SAVE FOODS LTD., priority 2020, published 2023)
